Results reported in patent US8999956B2, “N-[(het)arylalkyl)] pyrazole(thio)carboxamides and their heterosubstituted analogues” (Bayer Intellectual Property GmbH, priority 2010, dated 2015).
Like-named read-outs stand apart in the source and are kept apart here.

Columns and labels:
Pyrenophora teres = experiment: In vivo preventive test on Pyrenophora teres (barley); conditions: 500 ppm of active ingredient, evaluated 7-9 days after inoculation
Experimental: (§1) Solvent: 49 parts by weight of N,N-dimethylformamide Emulsifier: 1 part by weight of alkylaryl polyglycol ether To produce a suitable preparation of active compound, 1 part by weight of active compound is mixed with the stated amounts of solvent and emulsifier, and the concentrate is diluted with water to the desired concentration. To test for preventive activity, young plants are sprayed with the preparation of active compound at the stated rate of application. One day after this treatment, the plants are inoculated with an aqueous spore suspension of Pyrenophora teres.

Alternaria solani = experiment: In vivo preventive test on Alternaria solani (tomato); conditions: 500 ppm of active ingredient, evaluated 7 days after inoculation
Experimental: as §1, with “Alkylarylpolyglycolether” for “alkylaryl polyglycol ether”, “Alternaria solani.” for “Pyrenophora teres.”

[1] = system: aflatoxines produced by Aspergillus parasiticus; experiment: microbe, parasite or virus in culture; format: cell-based
Aspergillus parasiticus = experiment: microbe, parasite or virus in culture; format: cell-based
[2] = log P by HPLC on reversed-phase column (EEC Directive 79/831 Annex V.A8); format: physicochemical
Experimental: In table 1, the log P values were determined in accordance with EEC Directive 79/831 Annex V.A8 by HPLC (High Performance Liquid Chromatography) on a reversed-phase column (C18), using the method described below: Temperature: 40° C.; […]

Row | SMILES | Efficacy (Pyrenophora teres) [%] | Efficacy (Alternaria solani) [%] | % Inhibition of Aflatoxin at 50 μM [1] [%] | % Inhibition of fungal growth at 50 μM (Aspergillus parasiticus) [%] | logP [2] | % Inhibition of fungal growth at 50 μM (Aspergillus parasiticus; 50 µM) [%] | % Inhibition of Aflatoxin at 50 μM ([1]; 50 µM) [%]
1 | CC(COc1cc(Cl)cc(Cl)c1)NC(=O)c1c(C(F)F)nn(C)c1F (racemic) [Example 121] | 100 | 90 | 100 | 98 | 3.72 |  | 
2 | CC(COc1cc(Cl)cc(Cl)c1)NC(=O)c1c(C(F)F)nn(C)c1Cl (racemic) [Example 122] | 100 | 100 | 100 | 91 | 3.92 |  | 
3 | CCC(COc1cc(Cl)cc(Cl)c1)NC(=O)c1c(C(F)F)nn(C)c1F (racemic) [Example 123] | 100 | 95 | 100 | 96 | 4.04 |  | 
4 | CC(CNC(=O)c1c(C(F)F)nn(C)c1F)Cc1ccc(Cl)c(Cl)c1 (racemic) [Example 128] | 100 | 95 | 83 | 71 | 3.68 |  | 
5 | CC(CCc1ccc(Cl)c(Cl)c1)NC(=O)c1c(C(F)F)nn(C)c1F (racemic) [Example 132] | 100 | 100 | 100 | 85 | 3.65 |  | 
6 | CC(CCc1ccccc1Cl)NC(=O)c1c(C(F)F)nn(C)c1Cl (racemic) [Example 143] | 100 | 100 | 96 | 73 | 3.41 |  | 
7 | CC(C)CC(C)C1CCCC1NC(=O)c1c(C(F)F)nn(C)c1F (single isomer, unassigned) [Example 317] |  |  | 100 |  | 4.22 isomer B | 90 | 
8 | Cc1ccsc1CCC(C)NC(=O)c1c(C(F)F)nn(C)c1Cl (stereo not shown) [Example 76] |  |  | 100 | 83 | 3.17 |  | 
9 | Cc1ccsc1CCC(C)NC(=O)c1c(C(F)F)nn(C)c1F (stereo not shown) [Example 77] |  |  | 100 | 98 | 3.02 |  | 
10 | CCC(CCc1sccc1C)NC(=O)c1c(C(F)F)nn(C)c1Cl (stereo not shown) [Example 78] |  |  | 83 | 65 | 3.48 |  | 
11 | CCC(CCc1sccc1C)NC(=O)c1c(C(F)F)nn(C)c1F (stereo not shown) [Example 79] |  |  | 100 | 93 | 3.31 |  | 
12 | CN(CCN(C)c1cccc(Cl)c1)C(=O)c1c(C(F)F)nn(C)c1Cl [Example 81] |  | 90 | 97 | 80 | 3.19 |  | 
13 | CN(CCN(C)c1cccc(Cl)c1)C(=O)c1c(C(F)F)nn(C)c1F [Example 82] |  | 95 | 100 | 100 | 3.02 |  | 
14 | CC(CNC(=O)c1c(C(F)F)nn(C)c1F)Cc1cc(Cl)cc(Cl)c1 (stereo not shown) [Example 116] | 100 | 90 | 100 | 82 | 3.83 |  | 
15 | Cn1nc(C(F)F)c(C(=O)NCCOc2cc(Cl)cc(Cl)c2)c1F [Example 117] | 78 |  | 99 | 81 | 3.35 |  | 
16 | CC(CCc1cc(Cl)cc(Cl)c1)NC(=O)c1c(C(F)F)nn(C)c1Cl (stereo not shown) [Example 119] |  |  | 95 | 77 | 4.01 |  | 
17 | CC(CCc1cc(Cl)cc(Cl)c1)NC(=O)c1c(C(F)F)nn(C)c1F (stereo not shown) [Example 120] |  |  | 100 | 100 | 3.83 |  | 
18 | Cn1nc(C(F)F)c(C(=O)N(CCOc2c(Cl)cccc2Cl)C2CC2)c1F [Example 124, N-cyclopropyl-N-[2-(2,6-dichlorophenoxy)ethyl]-3-(difluoromethyl)-5-fluoro-1-methyl-1H-pyrazole-4-carboxamide] | 90 | 95 |  |  | 4.23 | 81 | 99
19 | Cn1nc(C(F)F)c(C(=O)NC(C)(C)CCc2cc(Cl)cc(Cl)c2)c1Cl [Example 125] | 100 | 95 | 96 | 76 | 4.64 |  | 

Row | SMILES | Efficacy (Pyrenophora teres) [%] | Efficacy (Alternaria solani) [%] | % Inhibition of Aflatoxin at 50 μM [1] [%] | % Inhibition of fungal growth at 50 μM (Aspergillus parasiticus) [%] | logP [2] | % Inhibition of fungal growth at 50 μM (Aspergillus parasiticus; 50 µM) [%] | % Inhibition of Aflatoxin at 50 μM ([1]; 50 µM) [%]
20 | Cn1nc(C(F)F)c(C(=O)NC(C)(C)CCc2cc(Cl)cc(Cl)c2)c1F [Example 126] | 100 | 90 | 100 | 89 | 4.41 |  | 
21 | Cn1nc(C(F)F)c(C(=O)NC(C)(C)CCc2ccc(Cl)c(Cl)c2)c1F [Example 134] |  |  | 100 | 79 | 4.21 |  | 
22 | Cn1nc(C(F)F)c(C(=O)NC(C)(C)CCc2cccc(C(F)(F)F)c2)c1F [Example 136] | 95 | 80 | 93 | 71 | 3.94 |  | 
23 | CN(CCCc1ccccc1Cl)C(=O)c1c(C(F)F)nn(C)c1F [Example 142] | 95 | 100 | 100 | 84 | 3.06 |  | 
24 | Cn1nc(C(F)F)c(C(=O)NC(C)(C)CCc2ccccc2Cl)c1F [Example 148] | 95 | 95 | 90 | 67 | 3.79 |  | 
25 | Cc1cccc(C)c1OCCNC(=O)c1c(C(F)F)nn(C)c1F [Example 151] | 94 | 90 | 100 | 100 | 2.88 |  | 
26 | CC(CNC(=O)c1c(C(F)F)nn(C)c1F)Cc1cc(Cl)ccc1Cl (stereo not shown) [Example 165] | 100 | 90 | 99 | 83 | 3.65 |  | 
27 | Cn1nc(C(F)F)c(C(=O)NCCOc2cc(Cl)ccc2Cl)c1F [Example 169] |  | 90 | 100 | 84 | 3.11 |  | 
28 | CC(COc1cc(Cl)ccc1Cl)NC(=O)c1c(C(F)F)nn(C)c1F (stereo not shown) [Example 173] | 78 | 90 | 100 | 85 | 3.46 |  | 
29 | CC(COc1cc(Cl)ccc1Cl)NC(=O)c1c(C(F)F)nn(C)c1Cl (stereo not shown) [Example 174] | 95 | 100 | 85 | 67 | 3.69 |  | 
30 | CCC(COc1cc(Cl)ccc1Cl)NC(=O)c1c(C(F)F)nn(C)c1F (stereo not shown) [Example 175] | 95 | 95 | 100 | 92 | 3.83 |  | 
31 | Cn1nc(C(F)F)c(C(=O)NC(C)(C)CCc2cc(Cl)ccc2Cl)c1F [Example 178] | 100 | 95 | 100 | 88 | 4.26 |  | 
32 | Cn1nc(C(F)F)c(C(=O)NCCCc2ccc(Cl)cc2Cl)c1F [Example 180] | 100 | 90 | 100 | 100 | 3.46 |  | 
33 | CC(CCc1ccc(Cl)cc1Cl)NC(=O)c1c(C(F)F)nn(C)c1Cl (stereo not shown) [Example 185] |  |  | 100 | 89 | 3.99 |  | 
34 | Cn1nc(C(F)F)c(C(=O)NCCOc2c(Cl)cc(Cl)cc2Cl)c1F [Example 202] | 80 |  | 100 | 84 | 3.60 |  | 
35 | CN(C(=O)c1c(C(F)F)nn(C)c1F)C(CSCc1ccccc1)C1CC1 (stereo not shown) [Example 225] |  | 95 | 100 | 85 | 3.46 |  | 
36 | Cn1nc(C(F)F)c(C(=O)N(C[Si](C)(C)Cc2cc(Cl)cc(Cl)c2)C2CC2)c1Cl [Example 292] |  |  | 100 | 86 | 5.14 |  | 
37 | CSC1CCCCC1N(C(=O)c1c(C(F)F)nn(C)c1F)C1CC1 (stereo not shown) [Example 351] |  |  | 100 | 100 | 3.50 |  | 
38 | CSC1CCCCC1N(C(=O)c1c(C(F)F)nn(C)c1Cl)C1CC1 (stereo not shown) [Example 352] |  |  | 99 | 85 | 3.73 |  | 
